# Measured values published in US9616062B2, “Cyclin dependent kinase inhibitors and methods of use” (priority 2009, dated 2017).
# Key:
# [1] = system: renal cell proliferation in female FVB wt mice; test: EdU incorporation into whole kidney of cisplatin-treated mice (flow cytometry); assay type: in vivo, mouse
# Protocol: FIG. 6: CDK4/6 inhibition blocks EdU incorporation into whole kidney in mice treated with cisplatin. […] EdU ([…]) was given IP every 24 hours prior to sacrifice. Kidneys were collected and single cell isolates were prepared and stained for EdU incorporation. Proliferation was assessed by flow cytometry. Data represents % of EdU staining in untreated, cisplatin-treated and cisplatin/PD0332991 treated cells.
# […] Proliferation was assessed by using BrdU (1 mg IP injection) every 6 hours for 24 hours prior to sacrifice or […] (0.1 mg IP) every 24 hours for 3 days prior to sacrifice.
# Kidneys were harvested from mice and single cells were isolated using a gentleMACS™ tissue dissociator (Miltinyi Biotec, Bergisch Gladbach, Germany). Briefly, kidneys were cut into small pieces and placed in 10 ml collagenase (1 mg/ml) in a gentleMACS™ C tube (Miltinyi Biotec, Bergisch Gladbach, Germany). Tissue was dissociated following the manufacturer's recommendations (Miltinyi Biotec, Bergisch Gladbach, Germany). Cells were then incubated for 5 minutes in ACK buffer to lyse red blood cells, filtered and pelleted. Cells were resuspended in 4% paraformaldehyde and stored overnight at 4° C. For quantification of EdU incorporation, the cells were fixed, permeabilized, and stained with an APC EdU Flow Kit according to the manufacturer's instruction (Invitrogen Corporation, Carlsbad, Calif., United States of America). Flow cytometric analysis was performed using a CyAn ADP (Dako, Glostrup, Denmark). For each sample, a minimum of 500,000 cells was analyzed and the data were analyzed using FlowJo software (Tree Star, Inc., Ashland, Oreg., United States of America).
# The kidney is relatively quiescent until challenged by a renal insult. Therefore, to determine whether renal cell proliferation was dependent on CDK4/6 activity in vivo, renal cell proliferation was stimulated by treating female FVB wt mice with cisplatin, a known nephrotoxic chemotherapeutic agent. At time 0 hr, mice were started on chow delivering PD0332991 100 mg/kg per day or standard chow with no drug. […]
# [2] = system: RB-deficient small cell lung cancer cell lines (H69, H82, H209, H345); test: SCLC cell proliferation, WST-1, RB-deficient lines; assay type: cell-based; conditions: 100 nM, all four RB-deficient cell lines
# Protocol: FIG. 8: CDK4/6 inhibition potentiates proliferation of Rb deficient cells. […] Cell proliferation was assessed using WST-1 reagent. Each data point represents the mean of four replicates +/−SEM. CDK4/6 inhibition increases cell proliferation of RB-deficient cell lines.
# Primary normal human renal proximal epithelial cells (American Type Culture Collection (ATCC), Manassas, Va., United States of America) were cultured in renal epithelial cell basal media supplemented with renal epithelial cell growth kit according to the manufacturer's recommendations. […] For the γH2AX assay, cells were fixed, permeabilized, and stained with anti-γH2AX as per γH2AX Flow Kit (Millipore, Billerica, Mass., United States of America). γH2AX levels were assessed by flow cytometry. Cell proliferation was assessed by seeding 1×10^3 cells per well in a 96-well tissue culture plate in 100 μL of growth medium. […] At the end of the recovery period, cell number was quantified using CellTiter-Glo® (Promega, Fitchburg, Wis., United States of America) or WST-1 reagent (TaKaRa Bio USA, Madison, Wis., United States of America). Cellular cytotoxicity was assessed using the TOXILIGHT™ Bioassay kit (Lonza, Basel, Switzerland) which measures cytolysis by quantifying the release of Adenylate Kinase into the culture media. […] 100 μL of TOXILIGHT™ reagent is added and incubated for 5 minutes and read in a luminometer at 1 second/well. […]
# [3] = system: mice treated with cisplatin; assay type: in vivo, mouse; conditions: single dose PD0332991 150 mg/kg oral gavage with cisplatin 15 mg/kg IP; 72 hours post treatment
# Protocol: FIG. 7: CDK4/6 inhibition protects kidney function in mice treated with cisplatin. Cohorts of mice were treated with cisplatin (10 mg/kg IP) alone (squares), PD0332991 (150 mg/kg PO) alone (diamonds) or immediately prior to cisplatin (10 mg/kg) (triangles). Kidney function was measured at day 7 by quantification of blood urea nitrogen (BUN) in mg/dL and serum creatinine (Serum Cr) in mg/dL. Data represents the mean of 6 animals per cohort +/−standard error of the mean.
# To determine if CDK4/6 inhibition around the time of DNA damage would protect renal function, mice were treated with cisplatin, a known causative agent of renal tubular damage in humans. Mice were treated with PD0332991 150 mg/kg or vehicle control by oral gavage and then received a single dose of cisplatin 15 mg/kg by IP injection. 72 hours post treatment mice were euthanized and blood was collected by cardiac puncture for BUN (blood urea nitrogen) and serum creatinine (SrCr) analysis. Serum BUN and SrCr are common markers of renal function and serum levels quickly elevated when kidney function has been acutely compromised.
smiles,measurement,setting,value
"CC(=O)c1c(C)c2cnc(Nc3ccc(N4CCNCC4)cn3)nc2n(C2CCCC2)c1=O [PD0332991, 6-acetyl-8-cyclopentyl-5-methyl-2-(5-piperazin-1-yl-pyridin-2-ylamino)-8H-pyrido-[2,3-d]-pyrimidin-7-one]",reduction in cell proliferation,[1]; cisplatin and PD0332991 vs cisplatin and vehicle control,88%
same,cells labeled with EdU,"[1]; kidney single cell suspension, 72 h, cisplatin 15 mg/kg IP, PD0332991 100 mg/kg per day in chow or no drug",approximately 2%
same,cell proliferation (WST-1) vs DMSO,[2],increased
same,protection of renal function (BUN and SrCr),[3],abrogate the cisplatin-induced nephrotoxicity
